The molecules below were run against RyR1/FKBP12 (Oryctolagus cuniculus) (assay: Agonist like activity at skeletal junction sarcoplasmic reticulum RyR1/FKBP12 complex assessed as increase in [3H]ryanodine binding).

Row | SMILES | EC50 [µM]
1 | [N-]=[N+]=Nc1ccc(I)cc1C(=O)NCCCC[C@H]1CC(=O)NCCc2cc(Br)c(O)c(c2)Oc2cc(Br)c(cc2Br)CCC(=O)N1 | 6.5
2 | O=C1CCc2ccc(c(I)c2)Oc2cc(cc(Br)c2O)CCN1 | 28.6
3 | O=C1CCc2ccc(c(Br)c2)Oc2cc(cc(Br)c2O)CCN1 | 10.9
4 | COC(=O)c1cc(I)ccc1N=[N+]=[N-] | > 100
5 | O=C1CCc2cc(Br)c(cc2Br)Oc2cc(cc(Br)c2O)CCN1 | > 100
6 | [N-]=[N+]=Nc1ccc(I)cc1C(=O)NCCCC[C@H]1CC(=O)NCCc2cc(Br)c(O)c(c2)Oc2ccc(cc2Br)CCC(=O)N1 | > 100
7 | [N-]=[N+]=Nc1cc2ccc1Oc1cc(cc(Br)c1O)CCNC(=O)CCNC(=O)CC2 | 20
8 | Nc1cc2ccc1Oc1cc(cc(Br)c1O)CCNC(=O)CC2 | 33
9 | O=C1CCc2ccc(cc2)Oc2cc(cc(Br)c2O)CCN1 | > 100
10 | O=C1CCNC(=O)CCc2ccc(c([N+](=O)[O-])c2)Oc2cc(cc(Br)c2O)CCN1 | 24
11 | O=C1CCc2ccc(c([N+](=O)[O-])c2)Oc2cc(cc(Br)c2O)CCN1 | 20.9
12 | Nc1cc2ccc1Oc1cc(cc(Br)c1O)CCNC(=O)CCNC(=O)CC2 | 21

What follows are molecules tested against RyR1/FKBP12 (Oryctolagus cuniculus) (assay: Antagonist like activity at skeletal junction sarcoplasmic reticulum RyR1/FKBP12 complex assessed as decrease in [3H]ryanodine binding).

Row | IC50 [µM] | SMILES
13 | 47 | O=C1CCNC(=O)CCc2cc(Br)c(cc2Br)Oc2cc(cc(Br)c2O)CCN1
14 | 63 | [N-]=[N+]=Nc1cc2ccc1Oc1cc(cc(Br)c1O)CCNC(=O)CC2
